This assay has as its target human α7 nAChR (Homo sapiens, UniProt P36544). In words: cell-based. The settings on record: EC50 of human α7nAChR(nM), HEK293T/17 cells transfected with human α7 nAChR; PNU-120596 added; relative to epibatidine 1 μM positive control.
Sequence of human α7 nAChR (P36544 23-502): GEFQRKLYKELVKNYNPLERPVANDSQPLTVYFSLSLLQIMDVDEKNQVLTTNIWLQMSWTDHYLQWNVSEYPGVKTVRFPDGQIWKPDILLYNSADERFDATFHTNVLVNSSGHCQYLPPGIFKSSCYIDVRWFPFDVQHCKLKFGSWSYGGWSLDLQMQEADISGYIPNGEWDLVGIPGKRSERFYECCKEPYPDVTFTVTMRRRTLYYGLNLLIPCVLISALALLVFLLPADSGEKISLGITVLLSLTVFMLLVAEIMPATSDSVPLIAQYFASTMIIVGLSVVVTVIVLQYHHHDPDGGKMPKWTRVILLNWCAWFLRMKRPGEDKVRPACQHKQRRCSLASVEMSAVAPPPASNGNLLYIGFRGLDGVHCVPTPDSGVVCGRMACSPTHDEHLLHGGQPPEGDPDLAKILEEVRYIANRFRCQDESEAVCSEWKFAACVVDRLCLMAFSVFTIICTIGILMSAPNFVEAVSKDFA
In the case of `CN(C)c1ccc(-n2cc(C(=O)NC3CN4CCC3CC4)ccc2=O)cc1` (stereo not drawn) [Example 113, N-(1-azabicyclo[2.2.2]octan-3-yl)-1-[4-dimethylaminophenyl]-6-oxo-3-pyridinecarboxamide], the EC50 fell in the range of 500 to 1000 nM.

As for `COc1ccc(Cl)cc1-n1cc(C(=O)NC2CN3CCC2CC3)ccc1=O` (stereo not drawn) [Example 56, N-(1-azabicyclo[2.2.2]octan-3-yl)-1-(5-chloro-2-methoxyphenyl)-6-oxo-3-pyridinecarboxamide], the EC50 is 500 to 1000 nM. In the case of `CSc1ccc(C(F)(F)F)cc1-n1cc(C(=O)NC2CN3CCC2CC3)ccc1=O` (stereo not drawn) [Example 83, N-(1-azabicyclo[2.2.2]octan-3-yl)-1-[2-(methylthio)-5-(trifluoromethyl)phenyl]-6-oxo-3-pyridinecarboxamide] it was 500 to 1000 nM; in that of `CSc1cc(C)ccc1-n1cc(C(=O)N[C@H]2CN3CCC2CC3)ccc1=O` [Example 90, N-[(3R)-1-azabicyclo[2.2.2]octan-3-yl]-1-[4-methyl-2-(methylthio)phenyl]-6-oxo-3-pyridinecarboxamide], under 100 nM. In the case of `O=C(NC1CN2CCC1CC2)c1ccc(=O)n(-c2ccc(F)cc2)c1` (stereo not drawn) [Example 7, N-(1-azabicyclo[2.2.2]octan-3-yl)-1-(4-fluorophenyl)-6-oxo-3-pyridinecarboxamide] it was 500 to 1000 nM. In the case of `O=C(NC1CN2CCC1CC2)c1ccc(=O)n(-c2ccccc2-c2cccs2)c1` (stereo not drawn) [Example 110, N-(1-azabicyclo[2.2.2]octan-3-yl)-6-oxo-1-(2-thiophene-2-ylphenyl)-3-pyridinecarboxamide] it was 100 to 500 nM. `O=C(NC1CN2CCC1CC2)c1ccc(=O)n(-c2ccc(Oc3ccc(Cl)cc3)cc2)c1` (stereo not drawn) [Example 71, N-(1-azabicyclo[2.2.2]octan-3-yl)-1-[4-(4-chlorophenoxy)phenyl]-6-oxo-3-pyridinecarboxamide]: the EC50 lay within 100 to 500 nM. In the case of `O=C(NC1CN2CCC1CC2)c1ccc(=O)n(-c2ccccc2Sc2ccccc2)c1` (stereo not drawn) [Example 95, N-(1-azabicyclo[2.2.2]octan-3-yl)-6-oxo-1-[2-(phenylthio)phenyl]-3-pyridinecarboxamide], the EC50 was under 100 nM.

With `Cc1ccc(-n2cc(C(=O)NC3CN4CCC3CC4)ccc2=O)c(C)c1` (stereo not drawn) [Example 32, N-(1-azabicyclo[2.2.2]octan-3-yl)-1-(2,4-dimethylphenyl)-6-oxo-3-pyridinecarboxamide], the EC50 is over 1000 nM.

With `CS(=O)(=O)c1ccc(-n2cc(C(=O)NC3CN4CCC3CC4)ccc2=O)cc1` (stereo not drawn) [Example 101, N-(1-azabicyclo[2.2.2]octan-3-yl)-1-(4-methylsulfonylphenyl)-6-oxo-3-pyridinecarboxamide], the EC50 lay within 100 to 500 nM. `O=C(NC1CN2CCC1CC2)c1ccc(=O)n(-c2ccc(-c3ccc(Cl)cc3)cc2)c1` (stereo not drawn) [Example 67, N-(1-azabicyclo[2.2.2]octan-3-yl)-1-[4-(4-chlorophenyl)phenyl]-6-oxo-3-pyridinecarboxamide]: the EC50 lay in the range of 500 to 1000 nM.

`CC(C)Sc1ccccc1-n1cc(C(=O)NC2CN3CCC2CC3)ccc1=O` (stereo not drawn) [Example 81, N-(1-azabicyclo[2.2.2]octan-3-yl)-6-oxo-1-[2-(propan-2-ylthio)phenyl]-3-pyridinecarboxamide] gave an EC50 of 100 to 500 nM. Take `O=C(NC1CN2CCC1CC2)c1ccc(=O)n(-c2ccccc2Oc2ccccc2)c1` (stereo not drawn) [Example 74, N-(1-azabicyclo[2.2.2]octan-3-yl)-6-oxo-1-(2-phenoxyphenyl)-3-pyridinecarboxamide]: the EC50 fell in the range of 100 to 500 nM. `O=C(NC1CN2CCC1CC2)c1ccc(=O)n(-c2ccc(Oc3ccccc3)cc2)c1` (stereo not drawn) [Example 73, N-(1-azabicyclo[2.2.2]octan-3-yl)-6-oxo-1-(4-phenoxyphenyl)-3-pyridinecarboxamide] came in with an EC50 of 500 to 1000 nM.

As to `CSc1ccc(-n2cc(C(=O)NC3CN4CCC3CC4)ccc2=O)cc1` (stereo not drawn) [Example 76, N-(1-azabicyclo[2.2.2]octan-3-yl)-1-[4-(methylthio)phenyl]-6-oxo-3-pyridinecarboxamide], the half-maximal effective concentration (EC50) is 100 to 500 nM. `CSc1ccccc1-n1cc(C(=O)N[C@H]2CN3CCC2CC3)ccc1=O` [Example 78, N-[(3R)-1-azabicyclo[2.2.2]octan-3-yl]-1-[2-(methylthio)phenyl]-6-oxo-3-pyridinecarboxamide] yielded an EC50 of under 100 nM.

In turn, `Cc1ccc(-c2ccc(-n3cc(C(=O)NC4CN5CCC4CC5)ccc3=O)cc2)cc1` (stereo not drawn) [Example 69, N-(1-azabicyclo[2.2.2]octan-3-yl)-1-[4-(4-methylphenyl)phenyl]-6-oxo-3-pyridinecarboxamide] yielded an EC50 of 100 to 500 nM.

Compound `CCCc1ccc(-n2cc(C(=O)NC3CN4CCC3CC4)ccc2=O)c(SC)c1` (stereo not drawn) [Example 94, N-(1-azabicyclo[2.2.2]octan-3-yl)-1-[2-(methylthio)-4-propylphenyl]-6-oxo-3-pyridinecarboxamide] yielded an EC50 of under 100 nM. In turn, `COc1ccccc1-n1cc(C(=O)NC2CN3CCC2CC3)ccc1=O` (stereo not drawn) [Example 20, N-(1-azabicyclo[2.2.2]octan-3-yl)-1-(2-methoxyphenyl)-6-oxo-3-pyridinecarboxamide] showed an EC50 of 500 to 1000 nM.

As to `CSc1ccccc1-n1cc(C(=O)N[C@@H]2CN3CCC2CC3)ccc1=O` [Example 79, N-[(3S)-1-azabicyclo[2.2.2]octan-3-yl]-1-[2-(methylthio)phenyl]-6-oxo-3-pyridinecarboxamide], the EC50 was in the range of 100 to 500 nM. In the case of `CCSc1ccccc1-n1cc(C(=O)NC2CN3CCC2CC3)ccc1=O` (stereo not drawn) [Example 80, N-(1-azabicyclo[2.2.2]octan-3-yl)-1-[2-(ethylthio)phenyl]-6-oxo-3-pyridinecarboxamide], the EC50 is under 100 nM. In the case of `O=C(NC1CN2CCC1CC2)c1ccc(=O)n(-c2ccc(C3CCCCC3)cc2)c1` (stereo not drawn) [Example 18, N-(1-azabicyclo[2.2.2]octan-3-yl)-1-(4-cyclohexylphenyl)-6-oxo-3-pyridinecarboxamide] it was 500 to 1000 nM. In the case of `CC(C)c1ccc(-n2cc(C(=O)NC3CN4CCC3CC4)ccc2=O)cc1` (stereo not drawn) [Example 17, N-(1-azabicyclo[2.2.2]octan-3-yl)-6-oxo-1-(4-propan-2-ylphenyl)-3-pyridinecarboxamide] it was 500 to 1000 nM; in that of `CSc1cc(Cl)ccc1-n1cc(C(=O)N[C@H]2CN3CCC2CC3)ccc1=O` [Example 87, N-[(3R)-1-azabicyclo[2.2.2]octan-3-yl]-1-[4-chloro-2-(methylthio)phenyl]-6-oxo-3-pyridinecarboxamide], under 100 nM; in that of `O=C(NC1CN2CCC1CC2)c1ccc(=O)n(-c2ccccc2Cl)c1` (stereo not drawn) [Example 2, N-(1-azabicyclo[2.2.2]octan-3-yl)-1-(2-chlorophenyl)-6-oxo-3-pyridinecarboxamide], under 100 nM. `CSc1cc(C2CCCCC2)ccc1-n1cc(C(=O)NC2CN3CCC2CC3)ccc1=O` (stereo not drawn) [Example 99, N-(1-azabicyclo[2.2.2]octan-3-yl)-1-[4-cyclohexyl-2-(methylthio)phenyl]-6-oxo-3-pyridinecarboxamide] came in with an EC50 of 100 to 500 nM. The figure for `O=C(NC1CN2CCC1CC2)c1ccc(=O)n(-c2ccccc2SCc2ccccc2)c1` (stereo not drawn) [Example 82, N-(1-azabicyclo[2.2.2]octan-3-yl)-6-oxo-1-[2-(phenylmethylthio)phenyl]-3-pyridinecarboxamide] is 100 to 500 nM.

Source of the values: patent publication US8716309B2, “Pharmaceutical composition comprising pyridone derivatives” (priority 2011, dated 2014).
